{"source": "ChEMBL document CHEMBL1138594", "about": "“Identification of an N-oxide pyridine GW4064 analog as a potent FXR agonist” (Bioorg Med Chem Lett, 2009)", "key": {"Bile acid receptor [1]": {"target": "T1, Bile acid receptor (Mus musculus, UniProt Q60641)", "T1 sequence (Q60641 whole entry)": "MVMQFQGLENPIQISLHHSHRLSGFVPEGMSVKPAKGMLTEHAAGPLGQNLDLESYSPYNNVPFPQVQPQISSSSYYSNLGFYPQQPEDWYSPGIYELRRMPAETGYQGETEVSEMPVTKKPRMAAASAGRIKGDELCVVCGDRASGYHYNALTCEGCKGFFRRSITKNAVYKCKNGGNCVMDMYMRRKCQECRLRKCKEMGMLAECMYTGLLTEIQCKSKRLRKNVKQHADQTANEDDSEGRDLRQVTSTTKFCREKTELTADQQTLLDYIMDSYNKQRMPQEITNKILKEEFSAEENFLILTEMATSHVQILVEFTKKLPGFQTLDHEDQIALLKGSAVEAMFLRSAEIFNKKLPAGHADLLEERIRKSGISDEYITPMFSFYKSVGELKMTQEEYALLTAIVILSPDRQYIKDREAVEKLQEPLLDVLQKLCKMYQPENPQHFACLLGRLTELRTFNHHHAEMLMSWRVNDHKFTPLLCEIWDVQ", "assay": "Agonist activity at mouse chimeric FXR assessed as receptor transactivation by luciferase transcriptional reporter gene assay", "assay_type": "functional"}, "[2]": {"target": "T2, Bile acid receptor (Homo sapiens) (UniProt Q96RI1)", "T2 sequence (whole entry)": "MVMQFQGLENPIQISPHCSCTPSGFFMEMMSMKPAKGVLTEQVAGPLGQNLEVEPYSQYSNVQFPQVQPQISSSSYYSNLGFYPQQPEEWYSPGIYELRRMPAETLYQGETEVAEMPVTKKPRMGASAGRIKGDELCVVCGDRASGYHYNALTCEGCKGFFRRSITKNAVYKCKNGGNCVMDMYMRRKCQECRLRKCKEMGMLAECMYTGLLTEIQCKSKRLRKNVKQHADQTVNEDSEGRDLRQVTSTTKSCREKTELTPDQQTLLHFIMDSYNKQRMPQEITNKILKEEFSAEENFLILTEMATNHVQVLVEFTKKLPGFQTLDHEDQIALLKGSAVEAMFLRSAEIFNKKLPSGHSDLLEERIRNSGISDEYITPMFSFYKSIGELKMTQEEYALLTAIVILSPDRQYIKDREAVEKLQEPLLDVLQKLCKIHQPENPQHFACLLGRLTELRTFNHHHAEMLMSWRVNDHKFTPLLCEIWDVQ", "assay": "Agonist activity at chimeric FXR assessed as receptor transactivation by luciferase transcriptional reporter gene assay relative to GW-4064", "assay_type": "functional", "set-up": "concentration or dose not given beside the values"}, "Bile acid receptor [3]": {"target": "T3, Bile acid receptor (Homo sapiens, UniProt Q96RI1)", "T3 sequence (Q96RI1 whole entry)": "T2 sequence (whole entry)", "assay": "Displacement of radioligand from human FXR by scintillation proximity assay"}, "Bile acid receptor [4]": {"target": "T3, Bile acid receptor"}, "[5]": {"assay": "Permeability by PAMPA method", "assay_type": "ADME", "details": "read-out: permeability"}, "[6]": {"target": "T4, Bile acid receptor (Mus musculus) (UniProt Q60641)", "T4 sequence (whole entry)": "T1 sequence (Q60641 whole entry)", "assay": "Agonist activity at mouse chimeric FXR assessed as receptor transactivation by luciferase transcriptional reporter gene assay relative to GW-4064", "assay_type": "functional", "set-up": "concentration or dose not given beside the values"}}, "data": [{"smiles": "CC(C)c1onc(-c2c(Cl)cccc2Cl)c1COc1ccc(/C=C/c2cccc(C(=O)O)c2)c(Cl)c1", "values": [{"measurement": "EC50", "setting": "Bile acid receptor [1]", "result": 2, "unit": "µM"}, {"measurement": "Activity", "setting": "[2]", "result": 100, "unit": "%"}]}, {"smiles": "CC(C)c1onc(-c2c(Cl)cncc2Cl)c1COc1ccc(/C=C/c2cccc(C(=O)O)c2)c(Cl)c1", "values": [{"measurement": "EC50", "setting": "Bile acid receptor [1]", "result": 11, "unit": "µM"}, {"measurement": "Activity", "setting": "[2]", "result": 59.4, "unit": "%"}, {"measurement": "IC50", "setting": "Bile acid receptor [3]", "result": 0.69, "unit": "µM"}, {"measurement": "EC50", "setting": "Bile acid receptor [4]", "result": 9, "unit": "µM"}, {"measurement": "Papp", "setting": "[5]", "result": 0.09, "unit": "×10⁻⁶ cm/s"}, {"measurement": "Activity", "setting": "[6]", "result": 48, "unit": "%"}]}, {"smiles": "Cc1cc(OCc2c(-c3c(Cl)cn(C)c(=O)c3Cl)noc2C(C)C)ccc1-c1ccc2c(C(=O)O)cn(C)c2c1", "values": [{"measurement": "EC50", "setting": "Bile acid receptor [1]", "result": 11, "unit": "µM"}, {"measurement": "Activity", "setting": "[2]", "result": 9, "unit": "%"}, {"measurement": "IC50", "setting": "Bile acid receptor [3]", "result": 2.75, "unit": "µM"}, {"measurement": "EC50", "setting": "Bile acid receptor [4]", "result": 12, "unit": "µM"}, {"measurement": "Activity", "setting": "[6]", "result": 15, "unit": "%"}]}, {"smiles": "Cc1cc(OCc2c(-c3c(Cl)ccc(=O)n3C)noc2C(C)C)ccc1-c1ccc2c(C(=O)O)cn(C)c2c1", "values": [{"measurement": "EC50", "setting": "Bile acid receptor [1]", "result": 4, "unit": "µM"}, {"measurement": "Activity", "setting": "[2]", "result": 27, "unit": "%"}, {"measurement": "IC50", "setting": "Bile acid receptor [3]", "result": 0.235, "unit": "µM"}, {"measurement": "EC50", "setting": "Bile acid receptor [4]", "result": 4, "unit": "µM"}, {"measurement": "Activity", "setting": "[6]", "result": 39, "unit": "%"}]}, {"smiles": "Cc1cc(OCc2c(-c3c(Cl)cncc3Cl)noc2C(C)C)ccc1-c1ccc2c(C(=O)O)cn(C)c2c1", "values": [{"measurement": "EC50", "setting": "Bile acid receptor [1]", "result": 3, "unit": "µM"}, {"measurement": "Activity", "setting": "[2]", "result": 38, "unit": "%"}, {"measurement": "EC50", "setting": "Bile acid receptor [4]", "result": 0.9, "unit": "µM"}, {"measurement": "Papp", "setting": "[5]", "result": 0.19, "unit": "×10⁻⁶ cm/s"}, {"measurement": "Activity", "setting": "[6]", "result": 71, "unit": "%"}]}, {"smiles": "COc1ccc(Cl)c(-c2noc(C(C)C)c2COc2ccc(-c3ccc4c(C(=O)O)cn(C)c4c3)c(C)c2)n1", "values": [{"measurement": "EC50", "setting": "Bile acid receptor [1]", "result": 2, "unit": "µM"}, {"measurement": "Activity", "setting": "[2]", "result": 23, "unit": "%"}, {"measurement": "IC50", "setting": "Bile acid receptor [3]", "result": 0.31, "unit": "µM"}, {"measurement": "EC50", "setting": "Bile acid receptor [4]", "result": 2, "unit": "µM"}, {"measurement": "Papp", "setting": "[5]", "result": 0.7, "unit": "×10⁻⁶ cm/s"}, {"measurement": "Activity", "setting": "[6]", "result": 12, "unit": "%"}]}, {"smiles": "Cc1cc(OCc2c(-c3ccn(C)c(=O)c3Cl)noc2C(C)C)ccc1-c1ccc2c(C(=O)O)cn(C)c2c1", "values": [{"measurement": "EC50", "setting": "Bile acid receptor [1]", "result": 6, "unit": "µM"}, {"measurement": "Activity", "setting": "[2]", "result": 12, "unit": "%"}, {"measurement": "IC50", "setting": "Bile acid receptor [3]", "result": 1.72, "unit": "µM"}, {"measurement": "EC50", "setting": "Bile acid receptor [4]", "result": 7, "unit": "µM"}, {"measurement": "Activity", "setting": "[6]", "result": 17, "unit": "%"}]}, {"smiles": "Cc1cc(OCc2c(-c3cc[nH]c(=O)c3Cl)noc2C(C)C)ccc1-c1ccc2c(C(=O)O)cn(C)c2c1", "values": [{"measurement": "EC50", "setting": "Bile acid receptor [1]", "result": 7, "unit": "µM"}, {"measurement": "Activity", "setting": "[2]", "result": 58.5, "unit": "%"}, {"measurement": "IC50", "setting": "Bile acid receptor [3]", "result": 1.1, "unit": "µM"}, {"measurement": "EC50", "setting": "Bile acid receptor [4]", "result": 5, "unit": "µM"}, {"measurement": "Activity", "setting": "[6]", "result": 63.3, "unit": "%"}]}, {"smiles": "COc1ccccc1-c1noc(C(C)C)c1COc1ccc(/C=C/c2cccc(C(=O)O)c2)c(Cl)c1", "values": [{"measurement": "EC50", "setting": "Bile acid receptor [1]", "result": 10, "unit": "µM"}, {"measurement": "Activity", "setting": "[2]", "result": 54.3, "unit": "%"}, {"measurement": "IC50", "setting": "Bile acid receptor [3]", "result": 0.25, "unit": "µM"}, {"measurement": "EC50", "setting": "Bile acid receptor [4]", "result": 10, "unit": "µM"}, {"measurement": "Activity", "setting": "[6]", "result": 19.8, "unit": "%"}]}, {"smiles": "CC(C)c1onc(-c2ccc(S(C)(=O)=O)cc2Cl)c1COc1ccc(/C=C/c2cccc(C(=O)O)c2)c(Cl)c1", "values": [{"measurement": "EC50", "setting": "Bile acid receptor [1]", "result": "> 10", "unit": "µM"}, {"measurement": "Activity", "setting": "[2]", "result": 0, "unit": "%"}, {"measurement": "IC50", "setting": "Bile acid receptor [3]", "result": 0.17, "unit": "µM"}, {"measurement": "EC50", "setting": "Bile acid receptor [4]", "result": "> 10", "unit": "µM"}, {"measurement": "Activity", "setting": "[6]", "result": 0, "unit": "%"}]}, {"smiles": "Cc1cc(OCc2c(-c3[nH]c(=O)ccc3Cl)noc2C(C)C)ccc1-c1ccc2c(C(=O)O)cn(C)c2c1", "values": [{"measurement": "EC50", "setting": "Bile acid receptor [1]", "result": 18, "unit": "µM"}, {"measurement": "Activity", "setting": "[2]", "result": 0, "unit": "%"}, {"measurement": "IC50", "setting": "Bile acid receptor [3]", "result": 4.13, "unit": "µM"}, {"measurement": "Activity", "setting": "[6]", "result": 8, "unit": "%"}]}, {"smiles": "Cc1cc(OCc2c(-c3c(Cl)c[n+]([O-])cc3Cl)noc2C(C)C)ccc1-c1ccc2c(C(=O)O)cn(C)c2c1", "values": [{"measurement": "EC50", "setting": "Bile acid receptor [1]", "result": 0.2, "unit": "µM"}, {"measurement": "Activity", "setting": "[2]", "result": 53.7, "unit": "%"}, {"measurement": "IC50", "setting": "Bile acid receptor [3]", "result": 0.045, "unit": "µM"}, {"measurement": "EC50", "setting": "Bile acid receptor [4]", "result": 0.102, "unit": "µM"}, {"measurement": "Papp", "setting": "[5]", "result": 587, "unit": "×10⁻⁶ cm/s"}, {"measurement": "Activity", "setting": "[6]", "result": 88.5, "unit": "%"}]}]}
